From patent publication US6858739B2, “Indole and benzimidazole 15-lipoxygenase inhibitors” (Warner-Lambert Company, priority 2000, dated 2005)

Experiments:
[1] = biological target: T1, rabbit reticulocyte 15-LO (Oryctolagus cuniculus, UniProt P12530); assay: 15-LO inhibition, rabbit reticulocyte enzyme (HPLC method of Auerbach et al.); format: biochemical; conditions: linoleic acid as substrate, incubation at 4° C. for 10 minutes
T1 construct: one utilizing rabbit reticulocyte 15-LO; from tissue; host or cells: rabbit reticulocytes
T1 sequence (P12530 1-663): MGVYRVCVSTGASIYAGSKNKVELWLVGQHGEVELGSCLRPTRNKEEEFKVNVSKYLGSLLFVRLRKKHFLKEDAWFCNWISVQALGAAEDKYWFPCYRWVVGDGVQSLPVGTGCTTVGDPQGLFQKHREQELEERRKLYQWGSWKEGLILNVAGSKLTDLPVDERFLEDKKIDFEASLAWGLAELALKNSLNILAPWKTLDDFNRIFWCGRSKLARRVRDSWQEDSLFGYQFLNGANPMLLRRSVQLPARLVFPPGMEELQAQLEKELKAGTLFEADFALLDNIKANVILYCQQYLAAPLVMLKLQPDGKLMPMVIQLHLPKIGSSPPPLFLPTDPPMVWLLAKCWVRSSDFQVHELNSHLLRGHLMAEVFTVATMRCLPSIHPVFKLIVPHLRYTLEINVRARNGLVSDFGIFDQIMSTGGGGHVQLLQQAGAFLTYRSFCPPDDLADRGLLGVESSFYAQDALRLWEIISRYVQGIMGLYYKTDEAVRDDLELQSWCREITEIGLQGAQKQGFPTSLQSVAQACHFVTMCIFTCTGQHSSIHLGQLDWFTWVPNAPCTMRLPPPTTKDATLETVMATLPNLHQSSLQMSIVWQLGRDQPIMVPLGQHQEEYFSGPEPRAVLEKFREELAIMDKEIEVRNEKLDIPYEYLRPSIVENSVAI
Method: (§1) The compounds described above are effective inhibitors of 15-LO when evaluated in standard assays routinely utilized to measure 15-LO activity. Specifically, representative compounds were evaluated by the methods described by Auerbach et al., Analytical Biochemistry, 1992;201:375-380. Two in vitro assays were utilized, one utilizing rabbit reticulocyte 15-LO, the other using human 15-LO. Both used linoleic acid as substrate, to enzymatically produce a peroxide oxidation product known as 13(S)-HPODE. N-Benzoyl leucomethylene blue was utilized as a colorimetric reagent for detection and quantification of the peroxide formation. Also, HPLC was utilized to quantify the oxidation following incubation at 4° C. for 10 minutes.
(§2) Data Column 1 gives the concentration of compound required to inhibit 50% of the activity of 15-LO (IC50) when measured by the HPLC method of Auerbach et al. using rabbit enzymes, and data Column 2 gives data from human 15-LO enzyme.

[2] = biological target: T2, human 15-LO (Homo sapiens, UniProt P16050); assay: 15-LO inhibition, human enzyme; format: biochemical; conditions: linoleic acid as substrate
T2 sequence (P16050 1-662): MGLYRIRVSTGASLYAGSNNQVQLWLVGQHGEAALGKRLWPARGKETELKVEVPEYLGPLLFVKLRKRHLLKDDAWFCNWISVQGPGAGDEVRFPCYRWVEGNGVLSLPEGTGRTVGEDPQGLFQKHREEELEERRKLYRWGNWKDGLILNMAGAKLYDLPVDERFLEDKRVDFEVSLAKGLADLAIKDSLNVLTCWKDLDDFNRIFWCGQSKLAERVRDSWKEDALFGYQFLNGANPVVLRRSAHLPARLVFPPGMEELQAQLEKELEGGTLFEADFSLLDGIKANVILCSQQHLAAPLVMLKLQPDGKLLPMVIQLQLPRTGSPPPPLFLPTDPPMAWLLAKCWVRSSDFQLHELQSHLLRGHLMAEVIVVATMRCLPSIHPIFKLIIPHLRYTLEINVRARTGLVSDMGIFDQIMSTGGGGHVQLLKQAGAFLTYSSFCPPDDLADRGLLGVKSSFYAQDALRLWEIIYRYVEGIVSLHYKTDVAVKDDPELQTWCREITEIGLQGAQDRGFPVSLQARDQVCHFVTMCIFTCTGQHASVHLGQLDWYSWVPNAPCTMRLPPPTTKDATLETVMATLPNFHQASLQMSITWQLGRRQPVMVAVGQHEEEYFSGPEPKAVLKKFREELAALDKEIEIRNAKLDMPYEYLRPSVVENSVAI
Method: as §1, §2

SMILES | IC50 [1] [nM] | IC50 [2] [nM] | melting point [°C]
COc1ccc(CNc2cc(-c3cc4cc(F)c(F)cc4[nH]3)ccc2OC)cc1 [Example 13, [5-(5,6-Difluoro-1H-indol-2-yl)-2-methoxy-phenyl]-(4-methoxy-benzyl)-amine] | 40 | 414 | 173 to 175
COC(=O)c1ccc(CNc2cc(-c3cc4cc(F)c(F)cc4[nH]3)ccc2OC)cc1 [Example 14, 4-{[5-(5,6-Difluoro-1H-indol-2-yl)-2-methoxy-phenylamino]-methyl}-benzoic acid methyl ester] | 113 | 1260 | 168 to 170
COc1ccc(-c2cc3cc(F)c(F)cc3[nH]2)cc1NS(=O)(=O)c1cccc([N+](=O)[O-])c1 [Example 15, N-[5-(5,6-Difluoro-1H-indol-2-yl)-2-methoxy-phenyl]-3-nitro-benzenesulfonamide] | 124 | 49 | 228 to 230
COc1ccc(-c2cc3cc(Cl)c(Cl)cc3[nH]2)cc1N [Example 18, 5-(5,6-Dichloro-1H-indol-2-yl)-2-methoxy-phenylamine] | 37 | 359 | 235 to 237
COc1ccc(-c2cc3cc(Cl)c(Cl)cc3[nH]2)cc1NC(=S)Nc1cccc(C(=O)O)c1 [Example 19, 3-{3-[5-(5,6-Dichloro-1H-indol-2-yl)-2-methoxy-phenyl]-thioureido}-benzoic acid] | 13 | 254 | 216 to 218
CCOP(=O)(Cc1ccc(NC(=S)Nc2cc(-c3cc4cc(F)c(F)cc4[nH]3)ccc2OC)cc1)OCC [Example 24, (4-{3-[5-(5,6-Difluoro-1H-indol-2-yl)-2-methoxy-phenyl]-thioureido}-benzyl)-phosphonic acid diethyl ester] | 18 | 91 | 180 to 182
COc1ccc(-c2cc3cc(F)c(F)cc3[nH]2)cc1NC(=S)NCCO [Example 37, 1-[5-(5,6-Difluoro-1H-indol-2-yl)-2-methoxy-phenyl]-3-(2-hydroxy-ethyl)-thiourea] | 45 | 33 | 191 to 193
COc1ccc(-c2cc3cc(F)c(F)cc3[nH]2)cc1NC(=S)NCCNC(=O)OC(C)(C)C [Example 38, (2-{3-[5-(5,6-Difluoro-1H-indol-2-yl)-2-methoxy-phenyl]-thioureido}-ethyl)-carbamic acid tert-butyl ester] | 19 | 25 | 110 to 113
COc1ccc(-c2cc3cc(F)c(F)cc3[nH]2)cc1NC(=S)Nc1ccc(F)c(F)c1 [Example 39, 1-[5-(5,6-Difluoro-1H-indol-2-yl)-2-methoxy-phenyl]-3-(3,4-difluoro-phenyl)-thiourea] | 17 | 36 | 183 to 186
COc1ccc(-c2cc3cc(F)c(F)cc3[nH]2)cc1NC(=S)Nc1cccnc1 [Example 41, 1-[5-(5,6-Difluoro-1H-indol-2-yl)-2-methoxy-phenyl]-3-pyridin-3-yl-thiourea] | 5 | 10 | 128 to 130
COc1ccc(-c2cc3cc(F)c(F)cc3[nH]2)cc1NCc1ccc(C#N)cc1 [Example 50, [5-(5,6-Difluoro-1H-indol-2-yl)-2-methoxy-phenyl]-(4-cyano-benzyl)-amine] | 74 | 116 | 158 to 159
